Experimental data as given in paper PMC8036666, “Biological and Physico-Chemical Characteristics of Arginine-Rich Peptide Gemini Surfactants with Lysine and Cystine Spacers” (International Journal of Molecular Sciences, 2021).
In brackets after ≈: the same amount, converted by molar mass. Read-outs that look alike come from different tables or passages of the source. Where a SMILES comes first, the peptide text is derived from it. Bridges are numbered along the chain shown (N, C = ends). Roman numbers before positions name the chains, in order. Side-chain parts run from the residue outwards. [ ]: non-standard residue; d: D form. The star is where a group is joined. Decanoyl = CCCCCCCCCC(=O)*; Nle = CCCC[C@H](N)C(=O)O; Octanoyl = CCCCCCCC(=O)*

Tests used:
[1] = Lipopeptide hydrophobicity by RP-HPLC (adjusted retention time); format: physicochemical; details: for Adjusted Retention Time: RP-HPLC, 20–65% acetonitrile over 30 min, indicator of hydrophobicity; for Difference in retention time calculated as tR’C—tR’B: between corresponding surfactants of series C and B
Method: The identity of the purified peptides was confirmed with electrospray ionization mass spectrometry (ESI-MS) in positive ion mode. Results of MS analyses and net charge are attached in Supplementary Materials (Table S1). Peptides’ hydrophobicity was evaluated by analytical reversed-phase high-performance liquid chromatography (RP-HPLC). The critical aggregation concentrations (CACs) of the lipopeptides were determined in unbuffered aqueous solution at 298 K by measuring the surface tension as a function of lipopeptide concentration. The measurements were carried out by the Du Noüy ring method on a K100 tensiometer. The surface tension data were plotted against the logarithm of lipopeptide concentration. CAC was found as the intersection of two lines being linear regression of data below and above CAC.
Lipopeptide hydrophobicity was determined as described previously. To do this, a Waters Alliance e2695 system with a Waters 2998 PDA Detector (software-Empower 3, Waters, Milford, MA, USA) was used. All analyses were carried out on a Waters X-Bridge Shield RP-18 column (3.0 × 100 mm, 3.5 μm particle size, 130 Å pore size). The Shield Technology column with embedded polar groups was used to minimize interactions of unreacted silanol groups with basic lipopeptides. The peptides were dissolved in water (0.1% TFA, v/v) up to a concentration of 1 mg/mL. UV detection at 214 nm was used, and samples (10 μL) were eluted with a linear 20–65% acetonitrile gradient in deionized water over 30 min at 25.0 ± 0.1 °C. The mobile phase flow rate was 0.5 mL/min. Both eluents contained 0.1% (v/v) of TFA. Each peptide sample was analyzed in triplicate. The maximum standard deviation and coefficient of variation were 0.044 and 0.85%, respectively.

[2] = system: Acinetobacter baumannii ATCC BAA 1605; details: ATCC BAA 1605, 24 h
Method: (§1) The Acinetobacter baumannii ATCC BAA-1605, Enterococcus faecium ATCC 700221, Escherichia coli ML-35 ATCC 43827, Klebsiella aerogenes ATCC 13048, Klebsiella pneumoniae ATCC 700603, Pseudomonas aeruginosa ATCC 9027, Staphylococcus aureus ATCC 25923, Staphylococcus aureus ATCC 33591, Candida albicans ATCC 10231, Candida glabrata ATCC 15126, strains were acquired from the American Type Culture Collection (ATCC). All the strains were stored at −80 °C in Roti-Store cryo vials and before the tests were transferred into fresh Mueller–Hinton broth (MHB, Biocorp, Warsaw, Poland) for bacteria or RPMI-1640 (Sigma-Aldrich, Steinheim, Germany) for fungi and incubated for 24 h at 37 °C. Then, the cultures were seeded on the Mueller–Hinton agar (BioMaxima, Lublin, Poland) or Sabouraud dextrose agar (SDA, BioMaxima, Lublin, Poland) plates, respectively, and incubated as just mentioned. These agar cultures were used for further microbiological assays. Cell densities for all assays were adjusted spectrophotometrically (Multiskan GO Microplate Spectrophotometer, Thermo Fisher Scientific, Vantaa, Finland) at 600 and 530 nm for bacteria and fungi, respectively.
(§2) The MICs were determined by the broth microdilution method according to the Clinical and Laboratory Standard Institute guidelines. […] The experiments were conducted on 96-well microtiter polystyrene plates (Kartell, Noviglio, Italy). The growth was assessed visually after incubation, and the MIC was assumed as the lowest peptide concentration at which a noticeable growth of microorganisms was inhibited. All experiments were conducted in triplicate.

[3] = system: Enterococcus faecium ATCC 700221
Method: as §1, §2

[4] = system: Pseudomonas aeruginosa ATCC 9027
Method: as §1, §2

[5] = system: Klebsiella pneumoniae ATCC 700603
Method: as §1, §2

[6] = system: Klebsiella aerogenes ATCC 13048; details: ATCC 13048, 24 h
Method: as §1, §2

[7] = system: Staphylococcus aureus ATCC 25923
Method: as §1, §2

[8] = system: Acinetobacter baumannii ATCC BAA 1605; format: cell-based; details: ATCC BAA 1605, 24 h
Method: (§3) Biofilm is associated with life-threating infections due to its outstanding resistance to antibiotics. In this study, the antibiofilm characteristics of USCLs and gemini surfactants were evaluated.
(§4) The MBECs were determined as described previously using 96-well polystyrene flat-bottom plates. For this purpose, 24 h cultures of microorganisms were diluted to obtain a final density of 5.0 × 10^5 CFU/mL and 2.0 × 10^5 CFU/mL of bacteria and fungi, respectively. Microorganisms were diluted in MHB or RPMI-1640 with 2% D-glucose (bacteria and fungi, respectively). Briefly, 100 µL of cell suspension was added into the test plates. After 24 h of incubation at 37 °C, the wells were rinsed three times with a PBS (pH 7.4) to remove non-adherent cells. Subsequently, 100 μL of the test compounds in a concentration range (1–512 μg/mL) were added to each well. After 24 h of incubation at 37 °C, 20 μL of a cell viability reagent was added (resazurin, 4 g/L; Sigma Aldrich, St. Louis, MO, USA). The MBEC was read after 1 h. The determined values were recorded as the lowest concentration at which the reduction of resazurin (from blue to pink) was lower or equal to 10 ± 0.5% as compared to the positive (100%) and negative (0%) controls. The reduction was monitored by measuring absorbance at 570 nm (reduced) and 600 nm (oxidized) using a microplate spectrophotometer (Multiskan GO Microplate Spectrophotometer, Thermo Fisher Scientific, Vantaa, Finland). All experiments were conducted in triplicate.

[9] = system: Staphylococcus aureus ATCC 33591; format: cell-based; details: ATCC 33591, 24 h
Method: as §3, §4

[10] = system: Staphylococcus aureus ATCC 33591
Method: as §1, with “[…],” for “Poland) for bacteria or RPMI-1640 (Sigma-Aldrich,”, “Cell densities for all assays were adjusted spectrophotometrically (Multiskan GO Microplate Spectrophotometer, Thermo Fisher Scientific, Vantaa, Finland) at 600 and 530 nm for bacteria and fungi, respectively.” left out
as §2

| Compound | Adjusted Retention Time [1] [min] | MIC Acinetobacter baumannii ATCC BAA 1605 [2] | MIC Enterococcus faecium ATCC 700221 ([3]; planktonic culture) | MIC Pseudomonas aeruginosa ATCC 9027 ([4]; planktonic culture) | MIC Klebsiella pneumoniae ATCC 700603 ([5]; ATCC 700603, 24 h) | MIC Klebsiella aerogenes ATCC 13048 [6] | MIC Staphylococcus aureus ATCC 25923 ([7]; planktonic culture) | MBEC Acinetobacter baumannii ATCC BAA 1605 [8] [µg/mL] | MBEC Staphylococcus aureus ATCC 33591 [9] [µg/mL] | MIC Staphylococcus aureus ATCC 33591 ([10]; planktonic culture) | Difference in retention time calculated as tR’C—tR’B [1] [min] | MIC Enterococcus faecium ATCC 700221 ([3]; ATCC 700221, 24 h) [µg/mL] | MIC Pseudomonas aeruginosa ATCC 9027 ([4]; ATCC 9027, 24 h) [µg/mL] | MIC Staphylococcus aureus ATCC 25923 ([7]; ATCC 25923, 24 h) [µg/mL] | MIC Staphylococcus aureus ATCC 33591 ([10]; ATCC 33591, 24 h) [µg/mL] | MIC Klebsiella pneumoniae ATCC 700603 ([5]; planktonic culture) [µg/mL] |
| --- | --- | --- | --- | --- | --- | --- | --- | --- | --- | --- | --- | --- | --- | --- | --- | --- |
| CCCCCCCC(=O)N[C@@H](CCCNC(=N)N)C(=O)N[C@@H](CCCNC(=N)N)C(N)=O [Compound A1, C8-RR-NH2] (Octanoyl-Arg-Arg-NH2) | 2.93 | >256 (−/−) µg/mL | >256 (−/−) µg/mL | >256 (−/−) µg/mL | >256 (−/−) µg/mL | >256 (−/−) µg/mL | >256 (−/−) µg/mL | >512 | >512 | >256 (−/−) µg/mL |  |  |  |  |  |  |
| CCCCCCCCCC(=O)N[C@@H](CCCNC(=N)N)C(=O)N[C@@H](CCCNC(=N)N)C(=O)N[C@@H](CSSC[C@H](NC(=O)[C@H](CCCNC(=N)N)NC(=O)[C@H](CCCNC(=N)N)NC(=O)CCCCCCCCC)C(N)=O)C(N)=O [Compound C2] (I: Decanoyl-Arg-Arg-Cys-NH2 / II: Decanoyl-Arg-Arg-Cys-NH2; disulfide I:3-II:3) | 13.94 | 16 µg/mL (≈ 13.7 µM) |  |  | >256 (−/−) µg/mL | 128 µg/mL (≈ 109 µM) |  | 256 | 8 |  | 0.21 | 2 (≈ 1.71 µM) | 8 (≈ 6.83 µM) | 2 (≈ 1.71 µM) | 1 (≈ 0.854 µM) |  |
| CCCCCCCCCC(=O)N[C@@H](CCCNC(=N)N)C(=O)N[C@@H](CCCNC(=N)N)C(=O)NCCCC[C@H](NC(=O)[C@H](CCCNC(=N)N)NC(=O)[C@H](CCCNC(=N)N)NC(=O)CCCCCCCCC)C(N)=O [Compound B2] (Decanoyl-Arg-Arg-Lys([Arg-Arg-Decanoyl])-NH2) | 13.73 | 8 µg/mL (≈ 7.42 µM) |  |  | 128 µg/mL (≈ 119 µM) | 128 µg/mL (≈ 119 µM) |  | 128 | 4 |  |  | 2 (≈ 1.85 µM) | 8 (≈ 7.42 µM) | 1 (≈ 0.927 µM) | 1 (≈ 0.927 µM) |  |
| CCCCCCCC(=O)N[C@@H](CCCC)C(=O)N[C@@H](CCCNC(=N)N)C(=O)N[C@@H](CCCNC(=N)N)C(=O)NCCCC[C@H](NC(=O)[C@H](CCCNC(=N)N)NC(=O)[C@H](CCCNC(=N)N)NC(=O)[C@H](CCCC)NC(=O)CCCCCCC)C(N)=O [Compound B6] (Octanoyl-[Nle]RRK([Arg-Arg-Nle-Octanoyl])-NH2) | 13.96 | 32 µg/mL (≈ 25.6 µM) |  |  | 64 µg/mL (≈ 51.3 µM) | 256 (−/−) µg/mL |  | 256 | 4 |  |  | 2 (≈ 1.6 µM) | 4 (≈ 3.2 µM) | 2 (≈ 1.6 µM) | 4 (≈ 3.2 µM) |  |
| CCCCCCCC(=O)N[C@@H](CCCC)C(=O)N[C@@H](CCCNC(=N)N)C(=O)N[C@@H](CCCNC(=N)N)C(=O)N[C@@H](CSSC[C@H](NC(=O)[C@H](CCCNC(=N)N)NC(=O)[C@H](CCCNC(=N)N)NC(=O)[C@H](CCCC)NC(=O)CCCCCCC)C(N)=O)C(N)=O [Compound C6] (I: Octanoyl-[Nle]RRC-NH2 / II: Octanoyl-[Nle]RRC-NH2; disulfide I:4-II:4) | 14.29 | 32 µg/mL (≈ 23.8 µM) |  |  |  | 256 (−/−) µg/mL |  | 512 | 8 |  | 0.33 | 2 (≈ 1.49 µM) | 8 (≈ 5.96 µM) | 2 (≈ 1.49 µM) | 2 (≈ 1.49 µM) | 64 (≈ 47.7 µM) |
| CCCCCCCC(=O)N[C@@H](CCCNC(=N)N)C(=O)N[C@@H](CCCNC(=N)N)C(=O)NCCCC[C@H](NC(=O)[C@H](CCCNC(=N)N)NC(=O)[C@H](CCCNC(=N)N)NC(=O)CCCCCCC)C(N)=O [Compound B1] (Octanoyl-Arg-Arg-Lys([Arg-Arg-Octanoyl])-NH2) | 8.11 | 256 (−/−) µg/mL |  |  | >256 (−/−) µg/mL | >256 (−/−) µg/mL |  | 512 | 32 |  |  | 64 (≈ 62.6 µM) | 32 (≈ 31.3 µM) | 4 (≈ 3.91 µM) | 8 (≈ 7.83 µM) |  |
